Reference: patent US20230381192A1, “METHODS FOR CONTROLLING AND PREDICTING RECOVERY AFTER NMBA ADMINISTRATION” (Cornell University, priority 2020, published 2023)
Where two headings read alike, the source gives them in different places.

How the values were obtained:
[1] = Phase I pharmacokinetics after single IV bolus; assay type: in vivo; conditions: both sexes, human, plasma, iv
Method: (§1) (Abstract available in the final supplement of the Journal of Anesthesia and Analgesia, May 2020 (Volume 30, Issue pages 73-74), which is incorporated herein by reference. Healthy volunteers (n=34) aged 18 to 55 of either gender gave informed consent to an 1RB-approved Phase I protocol, NMB was measured by mechanomyography during sevoflurane (0.5 MAC)/N20 (70%) anesthesia. Each volunteer received a single IV bolus of RP1000,

Healthy volunteers = assay: Phase I safety and tolerability in humans; assay type: in vivo, human
Method: as §1

dogs = conditions: very high doses (27 and 54×ED95); cited from earlier work
monkeys = conditions: cited from earlier work
cats = conditions: cited from earlier work
[2] = in vivo; cited from earlier work

**Q.** What does the source list for `COc1ccc(C[C@@H]2c3cc(OC)c(OC)cc3CC[N@@+]2(C)CCCOC(=O)/C=C/C(=O)OCCC[N@+]2(C)CCc3cc(OC)c(OC)cc3[C@H]2Cc2ccc(OC)c(OC)c2)cc1OC.[Cl-].[Cl-]` [RP1000]?
**A.** clearance ([1]; 0.06 mg/kg, single IV bolus 0.06 mg/kg (n = 6), read-out: CL (clearance), Mean (SD)): 409 mL/min; Cmax ([1]; 0.06 mg/kg, single IV bolus 0.06 mg/kg (n = 6), read-out: Cmax, Geometric Mean): 2600 ng/mL; Cmax ([1]; 0.06 mg/kg, single IV bolus 0.06 mg/kg (n = 6), read-out: Cmax, Mean): 3070 ng/mL; Vd ([1]; 0.06 mg/kg, single IV bolus 0.06 mg/kg (n = 6), read-out: Vss (volume at steady state), Geometric Mean): 8.8 L; Vd ([1]; 0.06 mg/kg, single IV bolus 0.06 mg/kg (n = 6), read-out: Vss (volume at steady state), Mean): 8.92 L; half-life ([1]; 0.06 mg/kg, single IV bolus 0.06 mg/kg (n = 6), read-out: t1/2 (terminal elimination half-life), Geometric Mean): 26.3 min; half-life ([1]; 0.06 mg/kg, single IV bolus 0.06 mg/kg (n = 6), read-out: t1/2 (terminal elimination half-life), Mean (SD)): 26 min; AUC(0-t) ([1]; 0.08 mg/kg, single IV bolus 0.08 mg/kg (n = 6), read-out: AUClast, Geometric Mean (converted)): 248 ng·h/mL; AUC(0-t) ([1]; 0.08 mg/kg, single IV bolus 0.08 mg/kg (n = 6), read-out: AUClast, Mean (converted)): 235 ng·h/mL; clearance ([1]; 0.08 mg/kg, single IV bolus 0.08 mg/kg (n = 6), read-out: CL (clearance), Geometric Mean): 387 mL/min; clearance ([1]; 0.08 mg/kg, single IV bolus 0.08 mg/kg (n = 6), read-out: CL (clearance), Mean (SD)): 390 mL/min; Cmax ([1]; 0.08 mg/kg, single IV bolus 0.08 mg/kg (n = 6), read-out: Cmax, Geometric Mean): 3610 ng/mL; Cmax ([1]; 0.08 mg/kg, single IV bolus 0.08 mg/kg (n = 6), read-out: Cmax, Mean): 4040 ng/mL; Vd ([1]; 0.08 mg/kg, single IV bolus 0.08 mg/kg (n = 6), read-out: Vss (volume at steady state), Geometric Mean): 9.58 L; Vd ([1]; 0.08 mg/kg, single IV bolus 0.08 mg/kg (n = 6), read-out: Vss (volume at steady state), Mean): 9.65 L; half-life ([1]; 0.08 mg/kg, single IV bolus 0.08 mg/kg (n = 6), read-out: t1/2 (terminal elimination half-life), Geometric Mean): 27 min; half-life ([1]; 0.08 mg/kg, single IV bolus 0.08 mg/kg (n = 6), read-out: t1/2 (terminal elimination half-life), Mean (SD)): 27 min; AUC(0-t) ([1]; 0.1 mg/kg, single IV bolus 0.10 mg/kg (n = 6), read-out: AUClast, Geometric Mean (converted)): 303 ng·h/mL; AUC(0-t) ([1]; 0.1 mg/kg, single IV bolus 0.10 mg/kg (n = 6), read-out: AUClast, Mean (converted)): 291 ng·h/mL; clearance ([1]; 0.1 mg/kg, single IV bolus 0.10 mg/kg (n = 6), read-out: CL (clearance), Geometric Mean): 438 mL/min; clearance ([1]; 0.1 mg/kg, single IV bolus 0.10 mg/kg (n = 6), read-out: CL (clearance), Mean (SD)): 443 mL/min; Cmax ([1]; 0.1 mg/kg, single IV bolus 0.10 mg/kg (n = 6), read-out: Cmax, Geometric Mean): 5020 ng/mL; Cmax ([1]; 0.1 mg/kg, single IV bolus 0.10 mg/kg (n = 6), read-out: Cmax, Mean): 5270 ng/mL; Vd ([1]; 0.1 mg/kg, single IV bolus 0.10 mg/kg (n = 6), read-out: Vss (volume at steady state), Geometric Mean): 9.02 L; Vd ([1]; 0.1 mg/kg, single IV bolus 0.10 mg/kg (n = 6), read-out: Vss (volume at steady state), Mean): 9.12 L; half-life ([1]; 0.1 mg/kg, single IV bolus 0.10 mg/kg (n = 6), read-out: t1/2 (terminal elimination half-life), Geometric Mean): 23.9 min; half-life ([1]; 0.1 mg/kg, single IV bolus 0.10 mg/kg (n = 6), read-out: t1/2 (terminal elimination half-life), Mean (SD)): 24 min; AUC(0-t) ([1]; 0.14 mg/kg, single IV bolus 0.14 mg/kg (n = 4), read-out: AUClast, Geometric Mean (converted)): 507 ng·h/mL; AUC(0-t) ([1]; 0.14 mg/kg, single IV bolus 0.14 mg/kg (n = 4), read-out: AUClast, Mean (converted)): 481 ng·h/mL; clearance ([1]; 0.14 mg/kg, single IV bolus 0.14 mg/kg (n = 4), read-out: CL (clearance), Geometric Mean): 366 mL/min; clearance ([1]; 0.14 mg/kg, single IV bolus 0.14 mg/kg (n = 4), read-out: CL (clearance), Mean (SD)): 368 mL/min; Cmax ([1]; 0.14 mg/kg, single IV bolus 0.14 mg/kg (n = 4), read-out: Cmax, Geometric Mean): 9120 ng/mL; Cmax ([1]; 0.14 mg/kg, single IV bolus 0.14 mg/kg (n = 4), read-out: Cmax, Mean): 10300 ng/mL; Vd ([1]; 0.14 mg/kg, single IV bolus 0.14 mg/kg (n = 4), read-out: Vss (volume at steady state), Geometric Mean): 7.84 L; Vd ([1]; 0.14 mg/kg, single IV bolus 0.14 mg/kg (n = 4), read-out: Vss (volume at steady state), Mean): 7.96 L; half-life ([1]; 0.14 mg/kg, single IV bolus 0.14 mg/kg (n = 4), read-out: t1/2 (terminal elimination half-life), Geometric Mean): 24.8 min; half-life ([1]; 0.14 mg/kg, single IV bolus 0.14 mg/kg (n = 4), read-out: t1/2 (terminal elimination half-life), Mean (SD)): 25 min; tolerability (Healthy volunteers; healthy volunteers, 0.02 mg/kg to 0.14 mg/kg): generally well-tolerated; cardiopulmonary side effects (Healthy volunteers; humans, doses up to 0.14 mg/kg): did not result in significant cardiopulmonary side effects; signs of histamine release (Healthy volunteers; humans, doses up to 0.14 mg/kg): nor any signs of histamine release; decrease in mean arterial pressure (dogs): 20%; increase in heart rate (dogs): 20%; effects on autonomic or circulatory systems (monkeys): no observed ill-elects on autonomic or circulatory systems; effects on autonomic or circulatory systems (cats): no observed ill-elects on autonomic or circulatory systems; potential for bronchoconstrictive activity or histamine release [2]: low potential
